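Each compound was tested at five concentrations against cells in 96-well plates for 48 hours. GI50 = concentration required for 50% inhibition of growth. The concentration for full growth arrest is given as TGI.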
Assays:
Assay in all cases: growth of human tumour cells (NCI), 48 h
CCRF-CEM leukemia = test system: CCRF-CEM leukemia
SF-295 CNS = test system: SF-295 CNS
SK-MEL-5 melanoma = test system: SK-MEL-5 melanoma
UACC-257 melanoma = test system: UACC-257 melanoma
COLO 205 colon = test system: COLO 205 colon
MALME-3M melanoma = test system: MALME-3M melanoma
HCC-2998 colon = test system: HCC-2998 colon
MOLT-4 leukemia = test system: MOLT-4 leukemia
SK-MEL-2 melanoma = test system: SK-MEL-2 melanoma
A549 NSCLC = test system: A549 NSCLC

| SMILES | GI50 (CCRF-CEM leukemia) [µM] | TGI (CCRF-CEM leukemia) [µM] | GI50 (SF-295 CNS) [µM] | TGI (SF-295 CNS) [µM] | GI50 (SK-MEL-5 melanoma) [µM] | TGI (SK-MEL-5 melanoma) [µM] | GI50 (UACC-257 melanoma) [µM] | TGI (UACC-257 melanoma) [µM] | GI50 (COLO 205 colon) [µM] | TGI (COLO 205 colon) [µM] | GI50 (MALME-3M melanoma) [µM] | TGI (MALME-3M melanoma) [µM] | GI50 (HCC-2998 colon) [µM] | TGI (HCC-2998 colon) [µM] | GI50 (MOLT-4 leukemia) [µM] | TGI (MOLT-4 leukemia) [µM] | GI50 (SK-MEL-2 melanoma) [µM] | TGI (SK-MEL-2 melanoma) [µM] | GI50 (A549 NSCLC) [µM] | TGI (A549 NSCLC) [µM] |
| --- | --- | --- | --- | --- | --- | --- | --- | --- | --- | --- | --- | --- | --- | --- | --- | --- | --- | --- | --- | --- |
| O=C1C(=O)c2ccc(Br)cc2-c2cc(Br)ccc21 | 0.553 | 1.83 | 51.8 | > 100 | 3.89 | > 33 | 1.62 | 4.19 | > 100 | > 100 | 7.74 | > 52.3 | 21.3 | > 100 | 0.522 | 1.66 | 10.4 | > 100 | 5.37 | > 95.6 |
| CCOC(C)OCC#CCCBr (stereo not given) | – | > 100 | – | > 100 | – | > 100 | – | > 100 | – | > 100 | – | > 100 | – | > 100 | – | > 100 | – | > 100 | – | > 100 |
| CN(C(=O)C1CCCCC1)c1ccccc1I(=O)=O | 17.6 | 38 | 36.5 | > 100 | 20.3 | 73.8 | 63.6 | > 100 | 14.6 | 29.8 | 14.6 | 30.9 | 70.3 | > 100 | 18 | 51.8 | > 100 | > 100 | 55.9 | > 100 |
| COC(=O)/C(=C/c1ccc(OC)cc1)C(C(=O)O)=C(C)C | – | > 100 | – | > 100 | – | > 100 | – | > 100 | – | > 100 | – | > 100 | – | > 100 | – | > 100 | – | > 100 | – | > 100 |
| CC(C)(C)C1CC[C@H]2c3c([nH]c4ccc(Br)cc34)[C@H]3C(=O)N(c4ccccc4)C(=O)[C@H]3[C@H]2C1 (stereo not given in full) | – | 20.1 | – | 43.1 | – | > 100 | – | > 100 | – | 44.2 | – | > 100 | – | > 100 | – | 71.6 | – | > 100 | – | > 100 |
| COc1cc2c(cc1O)[C@H](C)C(c1ccc(Cl)cc1)O2 (stereo not given in full) | – | 39 | – | 82.6 | – | 31.8 | – | > 100 | – | > 100 | – | 80.6 | – | 36.1 | – | 40.9 | – | 56 | – | 98.6 |
| O=C(c1ccccc1)c1ccc(-c2ccc(O)cc2)cc1 | 0.533 | > 23.9 | 2.43 | 10.5 | 1.05 | 11.8 | 16 | 66.5 | 19.4 | 45.9 | 0.803 | 34.9 | 15.2 | 43.9 | 4.28 | 33.4 | 6.95 | 61 | 3.9 | > 65.3 |
| COc1ccc2c(c1)O/C(=C\c1cccc(OCC(=O)Nc3nc4ccccc4s3)c1)C2=O | 0.419 | 1.25 | 11.4 | > 71.7 | > 51.5 | > 100 | > 100 | > 100 | > 100 | > 100 | 2 | 4.37 | > 100 | > 100 | 3.33 | 20.2 | 11.5 | 33.3 | 39.8 | > 100 |
| CC1(C)CCC(S(=O)(=O)c2ccc3c(c2)/C(=N\O)c2cc(S(=O)(=O)N4CCC(O)(c5cccc(C(F)(F)F)c5)CC4)ccc2-3)CC1 | 0.0291 | 0.0906 | 0.0272 | 0.11 | 0.0454 | 0.18 | 0.0665 | 1.11 | 0.0208 | 0.0455 | 0.0216 | 0.053 | 0.0237 | 0.0545 | 0.0199 | 0.0444 | 0.0179 | 0.0364 | 0.034 | 1.05 |
| CN(C(=O)c1ccc(F)cc1C(F)(F)F)C1CCN(c2nnc(-c3ccnn3C)c3ccccc23)CC1 | 31.6 | > 100 | 31.5 | > 100 | 11.6 | 30 | 23.2 | > 100 | 32.9 | > 100 | 23.6 | > 100 | > 93.3 | > 100 | 23.2 | 68.8 | 29.9 | > 100 | 41 | > 100 |
| O=C(CC12CC3CC(CC(C3)C1)C2)NCCOCCOCCNC(=O)c1cc2c(o1)C(=O)c1ccccc1C2=O | 2.27 | 13.1 | 0.663 | 1.94 | 0.176 | 0.328 | 1.14 | 2.43 | 1.28 | 2.76 | 0.134 | 0.264 | 1.78 | 3.39 | 1.97 | 4.98 | 1.6 | 3.86 | 0.22 | 0.51 |
| COc1ccc(C(CC(=O)c2ccccc2)C(C(=O)c2ccccc2)C(c2ccc(OC)cc2)C2C(=O)NC(=O)NC2=O)cc1 (stereo not given) | 12.9 | > 100 | 23.2 | > 100 | 12.5 | 31.8 | 14.1 | 69.3 | 3.43 | 19.1 | 33.1 | > 100 | 6.83 | 28.5 | 60.7 | > 100 | 38.5 | > 100 | 15.9 | > 100 |
| O=C1Nc2ccc(F)c3c(OCCO)cc(-c4ccc[nH]4)c1c23 | 0.99 | 11.1 | 2.43 | 18.9 | 2.45 | 6.29 | 4.94 | 17.9 | 1.33 | 5.79 | 3.47 | 11.5 | 2.63 | 10.1 | 1.21 | 10.3 | 1.4 | 6.51 | 1.21 | 8.57 |
| CN(C)CCC1(C2=CCCC2)CC/C(=C\c2ccc3c(c2)OCO3)C1=O (stereo not given) | – | 41.4 | – | 29.5 | – | 27.6 | – | 29 | – | 47.7 | – | 30.1 | – | 29.6 | – | 31.4 | – | 31.6 | – | 31.8 |
| Cc1oc2ccccc2c(=O)c1Cn1nnc2ccccc21 | – | > 100 | – | > 100 | – | 48.5 | – | 66.9 | – | > 100 | – | > 100 | – | > 100 | – | > 100 | – | > 100 | – | > 100 |
